Patent US11957766B2, “HNQO1-activatable fluorescent probe for imaging cancer cells in-vitro and in-vivo” (Texas Tech University System, priority 2019, dated 2024)

Legend:
[1] = test system: NQO1-negative MDA-MB-231 cells; experiment: NIR-ASM in NQO1-negative control MDA-MB-231 cells; type: cell-based, human; details: microscopy and flow cytometry
Procedure: (§1) Chemical and genetic approaches confirm the specificity of NIR-ASM for NQO1 in live tumor cells. A fluorescence probe with high sensitivity, simple operation, and excellent specificity will be an asset for the detection of NQO1 in situ. To assess the substrate selectivity of NIR-ASM for NQO1, both A549 and H460 cells were pretreated with 100 nM of NQO1 inhibitor ES936 for 6 h, before incubating with 10 μM NIR-ASM. […] The effect of ES936 on endogenous NQO1 activity and subsequent reactivity with NIR-ASM was also determined by flow cytometry. […] The presence of NQO1 protein in the transfected MDA-MB-231 cells and its absence in the untransfected control was confirmed by immunoblotting (FIG. 13E). Subsequently, the NQO1-negative and positive MDA-MB-231 cell lines were incubated with NIR-ASM and analyzed by fluorescence microscopy and flow cytometry for activation of the probe.
Fluorescence imaging. Both cancer and normal cells were seeded into 6-well plates and cultured overnight in respective media at 37° C. […] Finally, the medium was replaced with PBS and the live cells were imaged using a multiphoton confocal fluorescence microscope (λex/em=488/644 nm). […]
Flow cytometry analysis. The endogenous NQO1 activity of cancer cells and normal cells was determined by flow cytometry after NIR-ASM exposure. […] About 1×10^4 cells were analyzed by flow cytometry (λex=488 nm).

[2] = biological target: NQO1 (Homo sapiens, UniProt P15559); experiment: Kinetics of NQO1 towards NIR-ASM (Michaelis-Menten); type: biochemical; set-up: purchased Sigma-Aldrich D1515; details: NQO1 2 μg/mL, NADH 100 μM
Sequence of NQO1 (P15559 whole entry): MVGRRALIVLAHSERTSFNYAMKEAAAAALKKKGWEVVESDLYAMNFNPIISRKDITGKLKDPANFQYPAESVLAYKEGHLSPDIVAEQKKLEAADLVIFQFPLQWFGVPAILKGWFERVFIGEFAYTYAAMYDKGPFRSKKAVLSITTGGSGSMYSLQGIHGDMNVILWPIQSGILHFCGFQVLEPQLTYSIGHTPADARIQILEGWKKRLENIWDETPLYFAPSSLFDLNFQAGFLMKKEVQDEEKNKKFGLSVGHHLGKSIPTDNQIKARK
Procedure: Next, the kinetics of fluorescent product formation was assessed. […] From this experiment, the initial rate of ASM formation, V (μmol min^−1 μg NQO1^−1), was calculated and then plotted as a function of NIR-ASM concentration (FIG. 10C).
Kinetic studies. Kinetic studies were performed using a microplate reader under philological conditions (PBS with 0.1% of BSA at 37° C.). The assay buffer contained 2 μg/mL of NQO1, 100 μM NADH and different concentrations of NIR-ASM (0-100 μM) in a total volume of 100 μL. Time-dependent fluorescence measurements were carried out to monitor the release of ASM by NQO1 activation of NIR-ASM (λex/em 460/646), and the data were collected every minute for 90 minutes. This assay was repeated two times in triplicate and the fluorescence readings were optimized to a standard curve of ASM of known concentration and calculated the velocity in terms of μmol^−1 min^−1 μg NQO1. A plot of the velocities and NIR-ASM concentration was used to obtaining the apparent kinetic parameters Km and Vmax from nonlinear regression analysis and Michaelis-Menton constant using the GraphPad Prism.

[3] = test system: NQO1 in A549 cells; experiment: siRNA knockdown of NQO1 and NIR-ASM activation; type: cell-based, human; details: NQO1 expression silenced more than 70%, 60 min incubation, compared with the control
Procedure: as §1
Knockdown of NQO1 by small interfering RNA (siRNA). NQO1 and scrambled or control siRNAs were introduced into cells using the X-tremeGENE siRNA transfection reagent (Roche) according to the manufacturer's instructions. 10 μl of transfection reagent was mixed with 80 pmol of siRNA and added to A549 cells in six-well plates. siRNA transfection efficiency was confirmed with Western blotting.

[4] = test system: brain tumor (DAOY, T98G, and U87MG) and normal (astrocytes) cells; experiment: Cytotoxicity of NQ-DCP, resazurin reduction assay; type: cell-based, human; details: 100 μM, 72 h incubation
Procedure: Visualization of Cancer Cells by Fluorescence Imaging of hNQO1. […] The cytotoxicity of NQ-DCP was initially evaluated in cultured brain tumor (DAOY, T98G, and U87MG) and normal (astrocytes) cells to assess its biocompatibility using the resazurin reduction assay. […] Cells were incubated with NQ-DCP (10 μM) for 60 min, washed with PBS and were imaged under a fluorescence microscope.

[5] = test system: intracranial U87MG tumor; experiment: Fluorescence imaging of hNQO1 in intracranial U87MG tumor-bearing mice with NQ-DCP; type: in vivo
Procedure: Fluorescence Imaging of hNQO1 in U87MG Tumor-Bearing Mice. With the prominent performance of NQ-DCP in cellular fluorescence imaging, the inventors further applied this probe to evaluate its capacity for the noninvasive fluorescence imaging of hNQO1 in vivo. NQ-DCP (10 mg/kg, 50 μL) was intravenously injected into sub-cutaneous U87MG tumor-bearing mice. The whole-body fluorescence was imaged with a Caliper IVIS Spectral imaging system. […] The host organs and tumor from the mice administered with NQ-DCP were harvested and their fluorescence was analyzed ex vivo using the IVIS to confirm the tumor-selective targeting ability of NQ-DCP. […] The application of NQ-DCP to image hNQO1 activity was also investigated in intracranial U87MG tumor-bearing mice. Tumor xenografts were established by implanting exponentially growing U87MG-Luc cells by stereotaxic injection into mice brain and the tumor growth was assessed by quantitative bioluminescence using IVIS (in vivo imaging system) (FIG. 7C). […] Therefore, the inventors performed intracranial injection of NQ-DCP (100 μM, 5 μL) to both healthy and tumor-bearing mice, the brain was isolated after 30 min and fluorescence images acquired.
Four-week-old male and female NCG and athymic nude mice were housed in a micro ventilated caging system in a sterile environment and fed ad-libitum with standard irradiated research rodent diet and water. To detect endogenous NQO1 activity, NQ-DCP (10 mg/kg) was dissolved PEG-400:EtOH:saline (57.1:14.3:28.6, v/v/v) and 50 μL given through intravenous injection and animals were imaged using IVIS Lumina XR Imaging system. To establish U87MG xenografts, a total of 5×10^6 cells (in 0.1 mL) were subcutaneously injected into the right inguinal area of the athymic nude mice. For establishing the orthotopic brain tumor model, the animals were anesthetized using 2% isoflurane and positioned in a Benchmark (Leica) stereotactic instrument. A 27-gauge needle was then used to drill a burr hole into the skull 0.5-mm anterior and 2-mm lateral to the bregma. U87MG-Luc2 cell suspension (2×10^5 cells in 5 μl PBS) was injected in the striatum at a depth of […] from the dural surface over 10 min. […] To detect endogenous NQO1 activity, orthotopic brain tumor models, NQ-DCP ([…]) was dissolved saline and 5 μL given through intracranial injection to both healthy and tumor-bearing mice. After 30 min of administration, brains were isolated and imaged using IVIS Lumina XR Imaging system.

[6] = intracranial injection 100 μM, 5 μL, brain isolated after 30 min

SMILES | fluorescence in control (NQO1-negative) cells [1] | maximum velocity (Vmax) [2] [μmol min^−1 mg NQO1^−1] | NIR-ASM fluorescence after siRNA silencing of NQO1 [3] | cytotoxicity [4] | blood-brain barrier crossing ([5]; explanation offered ("perhaps") for lack of signal after systemic injection) | ex vivo brain fluorescence, control healthy mouse [5, 6] | ex vivo brain fluorescence, tumor-bearing mouse [5, 6] | fluorescence signal in intracranial tumors ([5]; systemic injections of the probe)
CC1=C(C)C(=O)C(C(C)(C)CC(=O)Nc2ccc(/C=C/C3=CC(=C(C#N)C#N)CC(C)(C)C3)cc2)=C(C)C1=O [NIR-ASM, (E)-N-(4-(2-(3-(dicyanomethylene)-5,5-dimethylcyclohex-1-en-1-yl)vinyl)phenyl)-3-methyl-3-(2,4,5-trimethyl-3,6-dioxocyclohexa-1,4-dien-1-yl)butanamide] | No fluorescence | 0.00419±0.00003 | almost a total loss |  |  |  |  | 
CC1=C(C)C(=O)C(C(C)(C)CC(=O)Oc2ccc(/C=C/C3=CC(=C(C#N)C#N)CC(C)(C)C3)cc2)=C(C)C1=O [NQ-DCP] |  |  |  | nontoxic | inability of the NQ-DCP to cross the blood-brain barrier | no fluorescence | bright fluorescence signal | not able to observe any fluorescence signal
